Data set [1] concerns Coxsackie-virus B1. Briefly: Cytopathic effect (CPE) inhibition assay. The data set is classed as cell-based, Coxsackievirus B1. Particulars: Table 3, HeLa, 37° C., 2 days; for EC50: Enterovirus B, HeLa37, 48 h, read-out: EC50 Coxsackie-virus B1.
The test system of data set [2] is Coxsackie-virus B3. Nature of the data set: Cytopathic effect (CPE) inhibition assay. The class given is cell-based, Coxsackievirus B3. Particulars: Table 3, HeLa, 37° C., 2 days; for EC50: Enterovirus B, HeLa37, 48 h, read-out: EC50 Coxsackie-virus B3.
The subject of data set [3] is Coxsackie-virus A24 (DN). Briefly: Cytopathic effect (CPE) inhibition assay. The data set is classed as cell-based, Coxsackievirus A24. Conditions: Table 3, MRC-5, 37° C., 2 days; for EC50: Enterovirus C, MRC5, 48 h.
Data set [4] relates to Coxsackie-virus A24 (HG). Nature of the data set: Cytopathic effect (CPE) inhibition assay. The data set is classed as cell-based, Coxsackievirus A24. Conditions: Table 3, MRC-5, 37° C., 2 days; for EC50: Enterovirus C, MRC5, 48 h.
Data set [5] deals with Polio-virus 3. Briefly: microbe, parasite or virus in culture. The data set is classed as cell-based, Poliovirus 3. Conditions: for EC50: Enterovirus C, HeLa37, 48 h, read-out: EC50 Polio-virus 3.
The subject of data set [6] is mock-infected cells (HeLa, MRC-5, RD). Conditions: human.
The nature of data set [7]: Cytotoxicity (CC50), MTS-based multicycle CPE reduction assay, Experimental Example 2. The data set is classed as cell-based. Particulars: Table 5. Here is the method:
(§1) The test compounds were evaluated for anti-picornavirus activity by a multicycle cytopathic effect (CPE) reduction assay. The antiviral activity was initially determined using an MTS [3-(4,5-dimethylthiazol-2-yl)-5-(3-carboxymethoxyphenyl)-2-(4-sulfophenyl)-2H-tetrazolium]-based CPE reduction assay.
(§2) In this regard, cells grown to confluence in 96-well plates were infected with 100 50% cell culture infective doses (CCID50) of virus. After an adsorption period of 2 hrs at 37° C., virus was removed and serial dilutions of the compounds were added. […] After removal of the medium, 90 μl of a culture medium and 10 μl of MTS-phenazine methosulfate (Promega, Leiden, The Netherlands) were added to each well. After an incubation period of 2 hrs at 37° C., the optical density (OD) of each well was read at 498 nm in a microplate reader.
CPE values for evaluating cytotoxicity were calculated using the following Mathmatic Formula 4: […]
(§3) The 50% effective concentration (EC50) and the 50 cytotoxic concentration (CC50) were defined as the concentrations of compound that offered 50% protection against virus-induced CPE and that killed cells by 50%, respectively, and were calculated using logarithmic interpolation.

The test system of data set [8] is Coxsackie B3. Nature of the data set: Multicycle CPE reduction assay. The data set is classed as cell-based, Coxsackievirus B3. Particulars: Enterovirus B, 37° C. in Vero cells. Here is the method: as §1, §2
(§4) CPE values for evaluating antiviral activity were calculated using the following Mathmatic Formula 3: […]
as §3

The subject of data set [9] is Coxsackie A9. Briefly: Multicycle CPE reduction assay. The data set is classed as cell-based, Coxsackievirus A9. Particulars: Enterovirus B, 37° C. in BGM cells.
Data set [10] has as its system Entero 71. Briefly: Multicycle CPE reduction assay. The class given is cell-based, enterovirus 71. Conditions: Enterovirus A; 37° C. in RD cells. Here is the method: as §1, §2, §4, §3
For data set [11], the system named is Echo 9. Nature of the data set: Multicycle CPE reduction assay. The data set is classed as cell-based, echovirus 9. Conditions: Enterovirus B, MRC5; 37° C. in MRC-5 cells. Here is the method:
as §1, §2, §4, §3

For data set [12], the system named is Echo 11. Nature of the data set: Multicycle CPE reduction assay. The data set is classed as cell-based, echovirus 11. Conditions: Enterovirus B; 37° C. in BGM cells. Here is the method: as §1, §2, §4, §3
For data set [13], the system named is Polio 1. Nature of the data set: microbe, parasite or virus in culture. The class given is cell-based, poliovirus 1. Conditions: Enterovirus C, BGM, read-out: Polio 1 EC50.
Data set [14] concerns Polio 3. Briefly: microbe, parasite or virus in culture. Conditions: Enterovirus C, BGM, read-out: Polio 3 EC50. The data set is classed as cell-based, poliovirus 3.
Data set [15] relates to Rhino 2. Briefly: Multicycle CPE reduction assay. The data set is classed as cell-based, rhinovirus 2. Particulars: Enterovirus; 37° C. in HeLa cells. Here is the method:
as §1, §2, §4, §3

Data set [16] deals with Rhino 9. Nature of the data set: Multicycle CPE reduction assay. The class given is cell-based, rhinovirus 9. Conditions: Enterovirus; 37° C. in HeLa cells. As to the method:
as §1, §2, §4, §3

Data set [17] concerns Rhino 15. Nature of the data set: Multicycle CPE reduction assay. Conditions: Enterovirus; 37° C. in HeLa cells. The class given is cell-based, rhinovirus 15. Here is the method:
as §1, §2, §4, §3

The subject of data set [18] is Rhino 29. Nature of the data set: Multicycle CPE reduction assay. The data set is classed as cell-based, rhinovirus 29. Conditions: Enterovirus; 37° C. in HeLa cells. As to the method: as §1, §2, §4, §3
The subject of data set [19] is Rhino 39. Nature of the data set: Multicycle CPE reduction assay. Conditions: Enterovirus; 37° C. in HeLa cells. The class given is cell-based, rhinovirus 39. Here is the method:
as §1, §2, §4, §3

In data set [20] the test system is Rhino 41. Nature of the data set: Multicycle CPE reduction assay. The class given is cell-based, rhinovirus 41. Particulars: Enterovirus; 37° C. in HeLa cells. As to the method:
as §1, §2, §4, §3

Data set [21] deals with Rhino 45. Briefly: Multicycle CPE reduction assay. The data set is classed as cell-based, rhinovirus 45. Conditions: 37° C. in HeLa cells. As to the method: as §1, §2, §4, §3
The test system of data set [22] is Rhino 63. Nature of the data set: Multicycle CPE reduction assay. The class given is cell-based, rhinovirus 63. Conditions: Enterovirus; 37° C. in HeLa cells. Here is the method: as §1, §2, §4, §3
Data set [23] concerns Rhino 85. Briefly: Multicycle CPE reduction assay. The class given is cell-based, rhinovirus 85. Particulars: Enterovirus; 37° C. in HeLa cells. As to the method: as §1, §2, §4, §3
Data set [24] concerns Rhino 89. Nature of the data set: Multicycle CPE reduction assay. The class given is cell-based, rhinovirus 89. Conditions: Enterovirus; 37° C. in HeLa cells. Here is the method: as §1, §2, §4, §3
Data set [25] has as its system Rhino 14. Briefly: Multicycle CPE reduction assay. The class given is cell-based, rhinovirus 14. Conditions: Enterovirus; 37° C. in HeLa cells. As to the method:
as §1, §2, §4, §3

The test system of data set [26] is Rhino 70. Nature of the data set: Multicycle CPE reduction assay. The data set is classed as cell-based, rhinovirus 70. Particulars: 37° C. in HeLa cells, read-out: Rhino 70 EC50. Here is the method:
as §1, §2, §4, §3

Data set [27] relates to echovirus 9 and echovirus 11. Briefly: Multicycle CPE reduction assay, text summary. The class given is cell-based. Particulars: Enterovirus B; Table 5; read-out: EC50 against echovirus 9 and echovirus 11.
The test system of data set [28] is polioviruses 1, 2 and 3. Nature of the data set: organism not typed. The class given is cell-based. Particulars: read-out: EC50 against polioviruses 1, 2 and 3.
A short description of data set [29]: in vitro. Conditions: human, CC50.
Data set [30] relates to Coxsackie-virus B4. Nature of the data set: Cytopathic effect (CPE) inhibition assay. Particulars: Enterovirus B, HeLa37, 48 h; Table 3; HeLa, 37° C., 2 days. The class given is cell-based, Coxsackievirus B4.
In data set [31] the test system is Polio-virus 2. Nature of the data set: microbe, parasite or virus in culture. The class given is cell-based, Poliovirus 2. Conditions: Enterovirus C, read-out: EC50 Polio-virus 2.

The values below come from patent US9833423B2 (KOREA RESEARCH INSTITUTE OF CHEMICAL TECHNOLOGY, priority 2011, dated 2017).

Molecules are shown by their SMILES. In brackets after ≈: the same amount, converted by molar mass. Read-outs that look alike come from different tables or passages of the source.

As for `CCCCC(=O)NC1(c2ccc(C(C)C)cc2OC(=O)CCCC)C(=O)c2ccccc2C1=O` [Example 69, 2-(1,3-Dioxo-2-pentanamido-2,3-dihydro-1H-inden-2-yl)-5-isopropylphenyl pentanoate], the melting point lay within 128 to 130 °C. In addition, the “EC50 Coxsackie-virus B1” value in data set [1] is below 0.01 µg/mL. Further, the “EC50 Coxsackie-virus B3” value in data set [2] is below 0.01 µg/mL. Further, in [3], the “EC50 Coxsackie-virus A24 (DN)” value is below 1.0 µg/mL. Also, the “EC50 Coxsackie-virus A24 (HG)” value in [4] is below 1.0 µg/mL. Also, in data set [5] (Table 3, HeLa, 37° C., 2 days), the “EC50 Polio-virus 3” value is below 1.0 µg/mL. Besides, in data set [6], the CC50 was above 117 µg/mL.
With `CC(=O)Oc1cc(C(C)C)ccc1C1(OC(C)=O)C(=O)c2cccc(N)c2C1=O` (stereo not shown) [Example 36, Acetic acid 2-(2-acetoxy-4-isopropyl-phenyl)-4-amino-1,3-dioxo-indan-2-yl ester], the melting point is 148 to 151 °C. Besides, the EC50 in data set [1] is below 0.01 µg/mL. Further, the EC50 in data set [2] is below 0.01 µg/mL. For the same molecule, the EC50 in data set [3] was below 0.1 µg/mL. In data set [4], this molecule registered an EC50 below 0.01 µg/mL. Also, the EC50 in data set [5] is below 0.01 µg/mL. This molecule also had a CC50 at 3 days in data set [7] above 50 µM. In [8], the EC50 is below 0.01 µM. In data set [9], this molecule gave an EC50 of 0.007 ± 0.00018 µM. The molecule also returned a concentration giving a half-maximal response (EC50) in data set [10] of 0.0067 µM. Moreover, in data set [11], a half-maximal response (EC50) required 0.011 ± 0.0032 µM. This molecule also yielded a concentration for a half-maximal effect (EC50) in [12] of 0.0082 ± 0.0019 µM. Moreover, in data set [13], the EC50 is 0.22 ± 0.05 µM. The EC50 in data set [14] was below 0.01 µM. Besides, the half-maximal effective concentration (EC50) in data set [15] was 7.8 ± 0.57 µM. Besides, the EC50 in data set [16] was 1.2 ± 0.12 µM. This molecule also registered a concentration for a half-maximal effect (EC50) in data set [17] of 1.5 ± 0.24 µM. The same molecule registered an EC50 in data set [18] of 5.5 ± 0.72 µM. Moreover, the half-maximal effective concentration (EC50) in data set [19] was found to be 1.4 ± 0.2 µM. The same molecule yielded an EC50 in data set [20] of 0.54 ± 0.003 µM. In data set [21] (listed as Ex. 36), this molecule yielded an EC50 below 0.078 µM. The molecule further yielded an EC50 in data set [21] (Enterovirus, HeLa) of at most 0.078 µM. In data set [22], this molecule gave an EC50 above 10 µM. Further, the 50% effective concentration (EC50) in [23] came to 7.5 ± 1.2 µM. The same molecule displayed a half-maximal effective concentration (EC50) in data set [24] of 0.49 ± 0.038 µM. The molecule also gave a concentration giving a half-maximal response (EC50) in [25] of 0.35 ± 0.32 µM. The EC50 in [26] (Enterovirus, HeLa) was at most 0.078 µM. Further, in data set [26] (listed as Ex. 36), the EC50 was above 0.078 µM. Also, the EC50 in data set [27] turned out to be 0.0082 µM. The EC50 in data set [28] was 0.01 µM. In [29], this molecule showed a CC50 of 9.42 µg/mL (≈ 23.8 µM).
As for `CCCCC(=O)NC1(c2ccc(C(C)C)cc2OC(=O)CCCC)C(=O)c2ccccc2C1=O` [Example 49, 2-(1,3-Dioxo-2-pentanamido-2,3-dihydro-1H-inden-2-yl)-5-isopropylphenyl pentanoate], the EC50 in [1] is below 0.01 µg/mL; in data set [2], below 0.01 µg/mL; in [30], below 0.01 µg/mL; in data set [3] it was below 1 µg/mL; in data set [4], below 1 µg/mL; in [5] it was below 1 µg/mL. Moreover, the EC50 in data set [31] was below 1 µg/mL. In [29], the CC50 is above 100 µg/mL.
